Kd data for 1 molecule are collected here from article PMC9048848 (RSC Advances, 2020).

This test addresses T1, PTP1B (Homo sapiens, UniProt P18031).
T1 sequence (P18031 1-321): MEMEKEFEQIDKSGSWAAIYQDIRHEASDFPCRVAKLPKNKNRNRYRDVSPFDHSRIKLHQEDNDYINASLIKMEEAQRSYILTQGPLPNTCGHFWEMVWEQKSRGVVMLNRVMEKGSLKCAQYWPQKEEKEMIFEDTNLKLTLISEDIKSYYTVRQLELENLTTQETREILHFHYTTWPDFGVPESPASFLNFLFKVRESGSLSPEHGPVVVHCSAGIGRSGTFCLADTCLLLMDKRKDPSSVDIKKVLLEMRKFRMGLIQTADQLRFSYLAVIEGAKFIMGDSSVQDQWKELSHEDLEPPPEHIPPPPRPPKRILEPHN
The test can be described thus: SPR. Format: binding.

The term Kd denotes the constant that tells how readily two partners part at equilibrium. `CCOCc1cc(O)c(O)c(Br)c1Cc1cc(O)c(O)c(Br)c1Br` [BPN, 3,4-Dibromo-5-(2-bromo-6-(ethoxymethyl)-3,4-dihydroxybenzyl)benzene-1,2-diol] displayed a Kd of 3.3 µM.
